# Test results from the SangsterLogP compilation.
# Experiment: method code SF-AS, from DOI: 10.1021/jm00146a003, PMID: 4020837
# Details: pH 7.4
row,Compound,logD
1,COCC(O)Cn1cnc([N+](=O)[O-])c1I (centres undefined),0.41
2,CCOC(=O)Cn1cnc(I)c1[N+](=O)[O-],0.93
3,Cn1cnc(I)c1[N+](=O)[O-],1.29
4,O=[N+]([O-])c1nc[nH]c1I,0.28
5,Cn1cnc([N+](=O)[O-])c1I,1
6,O=C(Cn1cnc([N+](=O)[O-])c1I)NCc1ccc[n+]([O-])c1,-1.4
7,O=C(Cn1cnc([N+](=O)[O-])c1I)Nc1cccnc1,0.46
8,COCC(O)Cn1cnc(I)c1[N+](=O)[O-] (centres undefined),0.89
9,CCOC(=O)Cn1cnc([N+](=O)[O-])c1I,0.57
